Where “and” joins values, the source holds several entries; their conditions need not be identical. Identical values can stand only once. Entries after “also recorded” stand apart in the source; their conditions may differ.
Experiments:
[1] = tested on: healthy lymphangion; test: Rescue of valve lock in isolated pressurized lymphangions under elevated pressure; parameters: species or system mouse
Text: FIG. 1A and FIG. 1B depict single (FIG. 1A) and multiple (FIG. 1B) lymphangion preparations showing measurements of pressure, diameter and valve position. FIG. 1C and FIG. 1D depict 1-valve preparations used for valve closure (FIG. 1C) and back-leak (FIG. 1D) tests. Color coding applies to pressure, diameter & valve traces shown in all subsequent figures; blue=upstream. black=mid segment, red=downstream. Pin and Pout are controlled with a computer-based servo controller; PL is intraluminal pressure measured with a servo-null micropipette inserted through the wall; diameters are measured with computer-based edge detection^(15); valve positions are determined using densitometry windows as shown^(21,22,69,71).
Studies were made of single and multiple lymphangions from mice under hydrostatic conditions simulating those experienced in primary and secondary lymphedema. When a progressive rise in outflow pressure is imposed, simulating the pressure load on the vessel in a dependent extremity, the normal response of the vessel is a myogenic constriction to Pout elevation (arrow, described in detail in ref.^(71)) with continued pumping, such that internal pressure generation slightly exceeds Pout during systole of each contraction cycle (*); as a result the output valve opens briefly in systole, allowing partial ejection. […]

[2] = tested on: mouse popliteal vessel; test: Contractile function of isolated lymphatic vessels with impaired contractility
Text: FIG. 9A, FIG. 9B, FIG. 9C and FIG. 9D depict the effect of norepinephrine (NE) on vessels with impaired contractility. […] FIG. 9C depicts that NE enhanced contractions in 13/14 vessels with impaired contractions and (FIG. 9D) induced >3.5-fold increase in FREQ (contraction frequency) and 2-fold increase in AMP (contraction amplitude) in a subset 8 vessels that had control contractions.
Data has been obtained to support the contention that NE has the potential not only to relieve valve lock (FIG. 3C) but also to enhance pump function. […] It is presumed that NE works by enhancing inotropy under these conditions and that it may be particularly effective in vessels fatigued or in partial pump failure from chronic pressure overload.

[3] = tested on: human mesenteric lymphatic vessels; test: Isolated pressurized human mesenteric lymphatic vessel segments, response to NE; details: 33 nM NE
Experimental: Recently, 1-, 2- and 3-valve segments of human mesenteric lymphatic vessels obtained following bariatric surgery were studied and their responses to Pout and/or Pin elevation and NE were tested. These are the first such measurements in isolated pressurized human lymphatics. […] Like rat/mouse vessels, the valves are biased to be open in the absence of a pressure gradient (arrowhead). Valve gating curves or tests for valve lock were unable to be performed because the vessels were too large to be studied on the microscope used with the pressure controller. However, it was encouraging to find that every response tested was similar to those of rat/mouse vessels.

[4] = tested on: dysfunctional lymphatic vessels; test: Phenylephrine on dysfunctional mouse lymphatic vessel; details: mouse diseased tissue sample, FIG. 18
[5] = tested on: dysfunctional lymphatic vessels; test: KATP channel inhibitor / L-type calcium channel agonist on diseased mouse tissue sample; details: single agent, FIG. 20
Experimental: Glibendamide was then applied to a disease mouse tissue sample. […] The combination of glibenclamide and BayK8644 was then evaluated in a diseased mouse tissue sample. […] BayK8644, along with BayR5417 and FPL64176, are exemplary L-type calcium channel agonists.

[6] = subset of 8 vessels that had control contractions

Q: For NC[C@H](O)c1ccc(O)c(O)c1 [NE, norepinephrine], which “relief of valve lock” value ([1]; pressure remains elevated, dose that counteracts the loss of tone but does not fuse contractions) is on record?
A: Its value is “relieves valve lock; also recorded: reverses valve lock; also recorded: can be rescued”.

Q: And the “working range of a lymphangion pumping against an output load” value ([1]; prophylactic application, vessel not yet failed)?
A: The value was “can be extended”.

Q: What about the “dose-dependent effect on frequency, tone and inotropy” value ([2]; 10^−8 to 10^−7M, FIG. 9) of the same compound?
A: The value was “increases in frequency, tone and inotropy”.

Q: What about the “effect on contractions and pumping of vessels with impaired contractility” value ([2]; fatigued or weakly contracting vessels) of the same compound?
A: Its value is “induce tone and spontaneous contractions; also recorded: induced robust contractions that persisted when pressure was elevated; also recorded: restores contraction and pumping; also recorded: induces spontaneous contractions; also recorded: consistent, large-amplitude contractions”.

Q: What about the “likelihood of having spontaneous contractions” value ([2]; preliminary analysis, FIG. 9C) of the same compound?
A: The value was “doubles”.

Q: And the “increase in AMP (contraction amplitude)” value [2, 6]?
A: Its value is 2 fold.

Q: What about the “increase in FREQ (contraction frequency)” value [2, 6] of the same compound?
A: Its value is 3.5 fold and > 3.5 fold.

Q: And the “vessels with enhanced contractions” value ([2]; vessels with impaired contractions, knock-out mouse developing hindlimb edema)?
A: The value was 13/14.

Q: What about the effect on tone [3] of the same compound?
A: Its effect on tone is “increase in tone”.

Q: And the “increase in AMP” value [3]?
A: Its value is about 50%.

Q: What about the “increase in FREQ” value [3] of the same compound?
A: Its value is about 2 fold.

Q: Which “effect on contraction and pumping” value [4] does the source give for CNC[C@H](O)c1cccc(O)c1 [PE, phenylephrine] here?
A: Its value is “restored contraction and pumping; also recorded: improves/restores normal contractions and pumping functions”.

Q: COc1ccc(Cl)cc1C(=O)NCCc1ccc(S(=O)(=O)NC(=O)NC2CCCCC2)cc1 [glibenclamide] was tested. Which “effect on contractions and pumping functions” value [5] did it give?
A: Its value is “improves/restores normal contractions and pumping functions”.
